These results are taken from patent publication US20210008095A1, “METHODS FOR TREATING MUSCULAR DYSTROPHY” (Sarepta Therapeutics, Inc., priority 2015, published 2021).

Series [1] relates to exon 51 of the human dystrophin gene. Kind of series: Exon 51 skipping in patient muscle biopsy at week 180. The class given is in vivo. The following applies: 180 weeks. How it is done:
Patients continued weekly dosing with 30 or 50 mg/kg eteplirsen under Study 202 (Study no. 4658-us-202; ClinicalTrials.gov Identifier: NCT01540409) a long-term, open-label extension study. All efficacy assessments continued to be performed during Study 202, including a third biopsy (in the left deltoid muscle) in all patients at week 48. A voluntary fourth biopsy ( 11/12 patients) was performed at week 180. Monitoring of adverse events continued throughout the study.

Another series concerns dystrophin. Kind of series: Dystrophin protein expression by western blot analysis in muscle biopsy. The class given is in vivo, human. The conditions noted are these: 180 weeks. How it is done: In some embodiments, the percent dystrophin-positive fibers are calculated by dividing the number of positive fibers by the total fibers counted. Normal muscle samples have 100% dystrophin-positive fibers. Therefore, the percent dystrophin-positive fibers can be expressed as a percentage of normal. To control for the presence of trace levels of dystrophin in the pretreatment muscle as well as revertant fibers a baseline can be set using sections of pre-treatment muscles from each patient when counting dystrophin-positive fibers in post-treatment muscles. This may be used as a threshold for counting dystrophin-positive fibers in sections of post-treatment muscle in that patient. In other embodiments, antibody-stained tissue sections can also be used for dystrophin quantification using Bioquant image analysis software (Bioquant Image Analysis Corporation, Nashville, Tenn.). The total dystrophin fluorescence signal intensity can be reported as a percentage of normal. […] Dystrophin production can also be measured by reverse-transcription polymerase chain reaction (RT-PCR). […] The percentage of dystrophin-positive fibers can also be analyzed by determining the expression of the components of the sarcoglycan complex (β,γ) and/or neuronal NOS. […]

In the case of “RNA, [P-deoxy-P-(dimethylamino)](2′,3′-dideoxy-2′,3′-imino-2′,3′-seco)(2′a→5′)(C-m5U-C-C-A-A-C-A-m5U-C-A-A-G-G-A-A-G-A-m5U-G-G-C-A-m5U-m5U-m5U-C-m5U-A-G), 5′-[P-[4-[[2-[2-(2-hydroxyethoxy)ethoxy]ethoxy]carbonyl]-1-piperazinyl]-N,N-dimethylphosphonamidate] (antisense CTCCAACATCAAGGAAGATGGCATTTCTAG; all phosphorodiamidate morpholino (PMO); 5' piperazinyl triethylene glycol carbamate tail on phosphonamidate, further chemistry not fully specified) [eteplirsen]”, in series [1], the “exon 51 skipping” value is “all patients had measurable exon 51 skipping”. For the same substance, the “patients with dystrophin protein expression as measured by western blot analysis” value with dystrophin is 9 of 11.
